# Measured values: patent US20250188151A1, “C-JUN ANTAGONIST PEPTIDES” (The University of Bath, priority 2022, published 2025)
# Bridge positions count the residues as written; N and C are the ends. Peptide text beside a SMILES is read from it.
# Tests used:
# [1] = target: cJun (Homo sapiens, UniProt P05412, S292Y); test: Isothermal titration calorimetry, Example 2 (PEAQ-ITC); assay type: binding; set-up: The same 60 amino acid c-Jun bZIP construct was used for all experiments; His-SUMO (N, cleaved yes); made in house; host or cells: E. coli; conditions: ITC; for Stoichiometry, n: c-Jun-peptide interaction
# Experimental: 2 μL injections of antagonist peptide at 25-200 μM were injected into the cell containing cJun at 2.5-20 μM. Software was used to record and analyse the heat change upon addition. Control experiments involved the injection of the antagonist peptide sample into the cell containing ITC buffer alone to determine the heat of dilution which was subtracted. The resulting binding data were fit to a one site binding model to extract the enthalpy change of binding (ΔH) and the equilibrium binding constant (KD), from which the free energy change of binding (ΔG) and the entropy change of binding (ΔS) was calculated (Wiseman et al., 1989). Thermodynamic parameters are presented as an average of two independent experiments with errors given as one standard deviation.
# [2] = target: T1, cJun/TRE DNA interaction (Homo sapiens, UniProt P05412, S292Y); test: CD cJun/TRE DNA antagonism (shift of TRE DNA peak at ~281 nm, Hill fit); assay type: biochemical
# T1 construct: The same 60 amino acid c-Jun bZIP construct was used for all experiments; His-SUMO (N, cleaved yes); made in house; host or cells: E. coli
# Source text: Briefly, in TBS the coding region for the essential gene dihydrofolate reductase (DHFR) is mutated to incorporate TRE sites so that introduction of c-Jun to this gene inside E. coli produces a transcriptional block that abrogates cell proliferation. The TRE site-bound c-Jun molecules sterically prevent RNA polymerase transcribing the essential gene and this can only be restored upon introduction of an effective c-Jun/TRE antagonist. Consequently, the survival of a particular cell is controlled by the ability of a peptide library member to remove the c-Jun transcriptional block and therefore to restore DHFR activity. TBS thus facilitates the identification of therapeutically valuable sequences. Further details for the TBS assay are provided in WO2020128015, which is incorporated herein by reference in its entirety. […] The TRE-DNA construct produces a positive CD peak at ˜281 nm, which decreases in intensity upon c-Jun binding. […] This method allows for the calculation of an IC50 value by fitting the titration data to a Hill equation. In some embodiments, the c-Jun antagonist is able to inhibit the DNA-binding activity of c-Jun within 10-fold of the ability of HingeW to inhibit the DNA-binding activity of c-Jun (e.g. the c-Jun antagonist has a reduced ability to inhibit the DNA-binding activity of c-Jun that is within 10-fold of that determined for HingeW). In some embodiments, the c-Jun antagonist is able to inhibit the DNA-binding activity of c-Jun within 9-fold, preferably within 8-fold, more preferably within 7-fold, even more preferably within 6-fold, yet more preferably within 5-fold of the ability of HingeW to inhibit the DNA-binding activity of c-Jun. The ability of the c-Jun antagonist and HingeW to inhibit the DNA-binding activity may be measured using the TBS assay (e.g. by quantifying the number of colonies) or by determining the IC50 using a circular dichroism assay described herein. Optionally, the c-Jun antagonist may have this activity when cross-linked. Methods for cross-linking peptides are described in more detail below.
# Therefore, the acidic domain was the initial focus for optimisation. 1 was iteratively truncated (2-6) to investigate the effect on c-Jun binding and c-Jun/TRE DNA antagonism. […] Thermal denaturation experiments were then used to determine the Tm of peptide-c-Jun heterodimers, which was used as an approximate measure of target engagement. CD was also used to investigate the ability of the functional activity of peptides in antagonising the c-Jun/TRE DNA interaction. The TRE-DNA construct used produces a positive CD peak at ˜281 nm (no c-Jun absorbance at this wavelength allows for direct measurement of DNA upon binding) which decreases in intensity upon c-Jun binding. […] This allowed for the calculation of an IC50 value by fitting the titration data to a Hill equation. […] The same 60 amino acid c-Jun bZIP construct was used for all experiments, regardless of antagonist peptide length.
# [3] = CD spectra and thermal denaturation of peptide-only samples (helicity, homodimer Tm); conditions: for change in fraction helicity from lactamisation: cyclised vs its linear form
# Experimental: Circular Dichroism (CD): An Applied Photophysics Chirascan was used for CD measurements, with a 200 μL sample in a 1 mm path length CD cell. Protein/DNA samples were suspended in 150 mM potassium phosphate, 150 mM potassium fluoride and 5 mM TCEP at pH 7.4 and were equilibrated for 30 minutes before measurement. […] These scans were averaged and converted to molar residue ellipticities (MRE). Thermal denaturation experiments were performed by measuring the ellipticity at 222 nm over a 1 to 90° C. gradient at 1° C. increments. Post-melt scans at 20° C. confirmed the transitions were reversible as they overlaid within 10% of the pre-melt scan.
# Circular Dichroism (CD): An Applied Photophysics Chirascan was used for CD measurements, with a 200 μL sample in a 1 mm path length CD cell. Protein/DNA samples were suspended in 150 mM potassium phosphate, 150 mM potassium fluoride and 5 mM TCEP at pH 7.4 and were equilibrated for 30minutes before measurement. […] Thermal denaturation experiments were performed by measuring the ellipticity at 222 nm over a 1 to 90° C. gradient at 1° C. increments. Post-melt scans at 20° C. confirmed the transitions were reversible as they overlaid within 10% of the pre-melt scan.
# Peptide helicity was determined by quantifying the CD signal at 222 nm of peptide only samples. Thermal denaturation experiments were then used to determine the Tm of peptide-c-Jun heterodimers, which was used as an approximate measure of target engagement. […] The same 60 amino acid c-Jun bZIP construct was used for all experiments, regardless of antagonist peptide length.
# [4] = target: cJun bZIP (Homo sapiens, UniProt P05412, S292Y); test: CD spectra and thermal denaturation of peptide/cJun heterodimers; conditions: peptide (5 μM)/c-Jun (5 μM) heterodimer; Table 6
compound,measurement,setting,value
CC[C@H](C)[C@H](NC(=O)[C@H](CCC(=O)O)NC(=O)[C@H](CCCCN)NC(=O)[C@H](CCCNC(=N)N)NC(=O)[C@H](CC(C)C)NC(=O)[C@H](C)NC(=O)[C@H](Cc1ccc(O)cc1)NC(=O)[C@H](CC(N)=O)NC(=O)[C@H](CCCNC(=N)N)NC(=O)[C@H](CCC(=O)O)NC(=O)[C@H](CCC(=O)O)NC(=O)[C@H](CC(C)C)NC(=O)[C@H](CCC(N)=O)NC(=O)[C@H](CCC(=O)O)NC(=O)[C@@H](NC(=O)[C@H](CCC(=O)O)NC(=O)[C@@H]1CC(=O)NCCCC[C@H](NC(=O)[C@H](CCC(=O)O)NC(=O)[C@H](CCC(=O)O)NC(=O)[C@@H](NC(=O)[C@@H](NC(=O)[C@H](CC(C)C)NC(=O)[C@H](CCC(=O)O)NC(=O)[C@H](CCC(=O)O)NC(=O)[C@H](C)NC(=O)[C@H](CCC(=O)O)NC(C)=O)C(C)C)C(C)C)C(=O)N[C@@H](C(C)C)C(=O)N[C@@H](CC(C)C)C(=O)N[C@@H](CCC(=O)O)C(=O)N1)[C@@H](C)CC)C(=O)N[C@@H](CCC(=O)O)C(=O)N[C@@H](CC(=O)O)C(=O)N[C@@H](CC(C)C)C(=O)N[C@@H](CCC(N)=O)C(=O)N[C@@H](CCCCN)C(=O)N[C@@H](CCC(N)=O)C(N)=O [Peptide 17] (Ac-EAEELVVEEKVLEDEIEQLEERNYALRKEIEDLQKQ-NH2; lactam 10-14),ΔG,[1],-9.766 ± 0.0669 kcal/mol
same,ΔH,[1],-14.1 ± 0.402 kcal/mol
same,−TΔS,[1],4.336 ± 0.406 kcal/mol
same,"Stoichiometry, n",[1],1.20 ± 0.02
same,effect of lactamisation on antagonism,[2]; P=0.24,did not lead to a significant increase in antagonism
same,change in fraction helicity from lactamisation,[3],~5%
same,Tm (° C.),[4],64.0 ± 0.8 °C
Ac-EAEELVVEEDVLEEEIEQLEERNYALRKEIEDLQKQ-NH2 [Peptide 11],ΔG,[1],-8.15 ± 0.098 kcal/mol
same,ΔH,[1],-5.989 ± 0.813 kcal/mol
same,−TΔS,[1],-2.14 ± 0.817 kcal/mol
same,"Stoichiometry, n",[1],0.95 ± 0.09
same,fold reduction in antagonism relative to 4,[2]; ratio of CD IC50,1.8 fold
same,Tm (° C.),[4],57.1 ± 0.9 °C
RIKAERKRMRNRIAASKCRKRKLERIARLEEKVKTLKAQNYELASTANMLREQVAQLGAP [cJun],Fraction helicity at 20° C. (CD),[3]; peptide alone,14.0%
same,Tm (° C.) (CD),[3]; peptide alone (homodimer),39.8 °C
CC[C@H](C)[C@H](NC(=O)[C@H](CCC(=O)O)NC(=O)[C@@H]1CC(=O)NCCCC[C@H](NC(=O)[C@H](CC(N)=O)NC(=O)[C@H](CCCCN)NC(=O)[C@H](CCC(=O)O)NC(=O)[C@H](CCC(=O)O)NC(=O)[C@H](CC(C)C)NC(=O)[C@H](CCC(N)=O)NC(=O)[C@H](CCC(=O)O)NC(=O)[C@@H](NC(=O)[C@H](CCC(=O)O)NC(=O)[C@H](CCC(=O)O)NC(=O)[C@H](CCC(=O)O)NC(=O)[C@H](CC(C)C)NC(=O)[C@@H](NC(=O)[C@H](CC(=O)O)NC(=O)[C@H](CCC(=O)O)NC(=O)[C@H](CCC(=O)O)NC(=O)[C@@H](NC(=O)[C@@H](NC(=O)[C@H](CC(C)C)NC(=O)[C@H](CCC(=O)O)NC(=O)[C@H](CCC(=O)O)NC(=O)[C@H](C)NC(=O)[C@H](CCC(=O)O)NC(C)=O)C(C)C)C(C)C)C(C)C)[C@@H](C)CC)C(=O)N[C@@H](C)C(=O)N[C@@H](CC(C)C)C(=O)N[C@@H](CCCCN)C(=O)N1)C(=O)N[C@@H](CCC(=O)O)C(=O)N[C@@H](CC(=O)O)C(=O)N[C@@H](CC(C)C)C(=O)N[C@@H](Cc1ccc(O)cc1)C(N)=O [Peptide 27] (Ac-EAEELVVEEDVLEEEIEQLEEKNKALKDEIEDLY-NH2; lactam 24-28),fold reduction in cJun/TRE antagonism relative to 1,[2]; ratio of CD IC50,8.8 fold
same,Tm (° C.),[4],52.5 ± 1.4 °C
Ac-LARENEELEKEAEELVVEEDVLEEEIEQLEERNYALRKEIEDLQKQLEKL-NH2 [Peptide 2],fold more effective antagonism than 10,[2]; ratio of CD IC50,4 fold
same,fold reduction in cJun/TRE antagonism relative to 1,[2]; ratio of CD IC50,1.2 fold
same,Tm (° C.),[4],68.5 ± 1.1 °C
CC[C@H](C)[C@H](NC(=O)[C@H](CCC(=O)O)NC(=O)[C@@H]1CC(=O)NCCCC[C@H](NC(=O)[C@H](CC(N)=O)NC(=O)[C@H](CCCCN)NC(=O)[C@H](CCC(=O)O)NC(=O)[C@H](CCC(=O)O)NC(=O)[C@H](CC(C)C)NC(=O)[C@H](CCC(N)=O)NC(=O)[C@H](CCC(=O)O)NC(=O)[C@@H](NC(=O)[C@H](CCC(=O)O)NC(=O)[C@H](CCC(=O)O)NC(=O)[C@H](CCC(=O)O)NC(=O)[C@H](CC(C)C)NC(=O)[C@@H](NC(=O)[C@H](CC(=O)O)NC(=O)[C@H](CCC(=O)O)NC(=O)[C@H](CCC(=O)O)NC(=O)[C@@H](NC(=O)[C@@H](NC(=O)[C@H](CC(C)C)NC(C)=O)C(C)C)C(C)C)C(C)C)[C@@H](C)CC)C(=O)N[C@@H](C)C(=O)N[C@@H](CC(C)C)C(=O)N[C@@H](CCCCN)C(=O)N1)C(=O)N[C@@H](CCC(=O)O)C(=O)N[C@@H](CC(=O)O)C(=O)N[C@@H](CC(C)C)C(=O)N[C@@H](CCC(N)=O)C(=O)N[C@@H](CCCCN)C(=O)N[C@@H](CCC(N)=O)C(=O)N[C@@H](CC(C)C)C(=O)N[C@@H](CCC(=O)O)C(=O)N[C@@H](CCCCN)C(=O)N[C@@H](CC(C)C)C(=O)N[C@@H](Cc1ccc(O)cc1)C(N)=O [Peptide 8],fold increase in antagonism relative to the linear counterpart 5,[2]; ratio of CD IC50,1.8 fold
same,Tm (° C.),[4],67.2 ± 0.8 °C
CC[C@H](C)[C@H](NC(=O)[C@H](CCC(=O)O)NC(=O)[C@H](CCCCN)NC(=O)[C@H](CCCNC(=N)N)NC(=O)[C@H](CC(C)C)NC(=O)[C@H](C)NC(=O)[C@H](Cc1ccc(O)cc1)NC(=O)[C@H](CC(N)=O)NC(=O)[C@H](CCCNC(=N)N)NC(=O)[C@H](CCC(=O)O)NC(=O)[C@H](CCC(=O)O)NC(=O)[C@H](CC(C)C)NC(=O)[C@H](CCC(N)=O)NC(=O)[C@H](CCC(=O)O)NC(=O)[C@@H](NC(=O)[C@H](CCC(=O)O)NC(=O)[C@H](CCC(=O)O)NC(=O)[C@H](CCC(=O)O)NC(=O)[C@H](CC(C)C)NC(=O)[C@@H](NC(=O)[C@H](CC(=O)O)NC(=O)[C@H](CCC(=O)O)NC(=O)[C@H](CCC(=O)O)NC(=O)[C@@H](NC(=O)[C@@H](NC(=O)[C@H](CC(C)C)NC(=O)[C@@H]1CC(=O)NCCCC[C@H](NC(C)=O)C(=O)N[C@@H](CCC(=O)O)C(=O)N[C@@H](C)C(=O)N[C@@H](CCC(=O)O)C(=O)N1)C(C)C)C(C)C)C(C)C)[C@@H](C)CC)C(=O)N[C@@H](CCCCN)C(=O)N[C@@H](CC(=O)O)C(=O)N[C@@H](CC(C)C)C(=O)N[C@@H](CCC(N)=O)C(=O)N[C@@H](CC(=O)O)C(=O)N[C@@H](CCC(N)=O)C(N)=O [Peptide 13] (Ac-KEAEDLVVEEDVLEEEIEQLEERNYALRKEIKDLQDQ-NH2; lactam 1-5),change in fraction helicity from lactamisation,[3],~1%
same,Tm (° C.),[4],58.5 ± 1.0 °C
